{"source": "paper PMC7486443", "about": "“Generation of Phenothiazine with Potent Anti-TLK1 Activity for Prostate Cancer Therapy” (iScience, 2020)", "assay_in_all_cases": "biochemical", "parameters_in_all_cases": "DiscoverX KINOMEscan scanMAX competition binding panel, single concentration, percent of control; remaining binding: dose or concentration left out as unconfirmed", "conditions_in_all_cases": "KINOMEscan binding, percent of control; read-out: Table S4_SCANMAX REPORT - related to Fig. 1 / Percent Control", "key": {"[1]": {"target": "AXL (Homo sapiens, UniProt P30530)", "sequence (P30530 whole entry)": "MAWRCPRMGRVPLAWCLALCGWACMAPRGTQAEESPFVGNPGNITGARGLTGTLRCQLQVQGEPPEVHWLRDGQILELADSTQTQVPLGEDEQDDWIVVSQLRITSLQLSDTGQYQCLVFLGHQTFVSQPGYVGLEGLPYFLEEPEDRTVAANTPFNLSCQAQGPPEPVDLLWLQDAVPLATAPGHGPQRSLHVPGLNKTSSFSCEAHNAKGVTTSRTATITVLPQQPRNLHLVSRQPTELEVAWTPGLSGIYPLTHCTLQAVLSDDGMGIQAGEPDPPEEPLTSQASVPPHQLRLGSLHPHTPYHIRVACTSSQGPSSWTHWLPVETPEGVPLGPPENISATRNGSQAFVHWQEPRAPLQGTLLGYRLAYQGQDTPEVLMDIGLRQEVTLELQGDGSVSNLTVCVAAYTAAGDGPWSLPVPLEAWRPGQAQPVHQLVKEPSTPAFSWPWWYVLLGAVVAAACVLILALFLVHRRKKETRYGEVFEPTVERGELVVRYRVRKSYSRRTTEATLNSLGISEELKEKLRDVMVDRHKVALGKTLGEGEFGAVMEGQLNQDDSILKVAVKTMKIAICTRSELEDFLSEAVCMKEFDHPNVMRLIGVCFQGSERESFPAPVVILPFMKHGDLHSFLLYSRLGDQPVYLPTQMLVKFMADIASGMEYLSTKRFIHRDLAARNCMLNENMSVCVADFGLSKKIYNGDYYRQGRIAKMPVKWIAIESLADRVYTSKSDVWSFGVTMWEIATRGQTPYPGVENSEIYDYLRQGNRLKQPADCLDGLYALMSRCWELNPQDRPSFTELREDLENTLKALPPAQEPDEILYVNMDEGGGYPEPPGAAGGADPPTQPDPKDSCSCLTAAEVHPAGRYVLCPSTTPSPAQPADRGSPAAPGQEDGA"}, "[2]": {"target": "AKT1 (Homo sapiens, UniProt P31749)", "sequence (P31749 whole entry)": "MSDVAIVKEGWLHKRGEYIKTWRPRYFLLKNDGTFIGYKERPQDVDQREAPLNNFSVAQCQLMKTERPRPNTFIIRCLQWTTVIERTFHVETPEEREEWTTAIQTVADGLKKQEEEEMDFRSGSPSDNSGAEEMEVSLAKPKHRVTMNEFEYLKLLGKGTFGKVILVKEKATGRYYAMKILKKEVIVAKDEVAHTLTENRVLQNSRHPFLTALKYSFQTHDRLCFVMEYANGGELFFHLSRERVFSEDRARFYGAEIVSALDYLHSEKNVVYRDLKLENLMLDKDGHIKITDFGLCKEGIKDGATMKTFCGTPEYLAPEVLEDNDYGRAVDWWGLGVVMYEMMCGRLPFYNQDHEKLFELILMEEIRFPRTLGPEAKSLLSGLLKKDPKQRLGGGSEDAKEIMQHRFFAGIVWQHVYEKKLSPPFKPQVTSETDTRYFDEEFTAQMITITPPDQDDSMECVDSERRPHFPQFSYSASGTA"}, "[3]": {"target": "TAOK3 (Homo sapiens, UniProt Q9H2K8)"}, "[4]": {"target": "PLK3 (Homo sapiens, UniProt Q9H4B4)"}, "[5]": {"target": "INSRR (Homo sapiens, UniProt P14616)"}, "[6]": {"target": "FLT3(D835Y) (Homo sapiens, UniProt P36888, D835Y)"}, "[7]": {"target": "T1, JNK2 (Homo sapiens, UniProt P45984)", "T1 construct": "gene MAPK9"}, "[8]": {"target": "T2, RPS6KA5(Kin.Dom.1-N-terminal) (Homo sapiens, UniProt O75582)", "T2 construct": "Kin.Dom.1-N-terminal"}, "[9]": {"target": "BRAF (Homo sapiens, UniProt P15056)", "sequence (P15056 whole entry)": "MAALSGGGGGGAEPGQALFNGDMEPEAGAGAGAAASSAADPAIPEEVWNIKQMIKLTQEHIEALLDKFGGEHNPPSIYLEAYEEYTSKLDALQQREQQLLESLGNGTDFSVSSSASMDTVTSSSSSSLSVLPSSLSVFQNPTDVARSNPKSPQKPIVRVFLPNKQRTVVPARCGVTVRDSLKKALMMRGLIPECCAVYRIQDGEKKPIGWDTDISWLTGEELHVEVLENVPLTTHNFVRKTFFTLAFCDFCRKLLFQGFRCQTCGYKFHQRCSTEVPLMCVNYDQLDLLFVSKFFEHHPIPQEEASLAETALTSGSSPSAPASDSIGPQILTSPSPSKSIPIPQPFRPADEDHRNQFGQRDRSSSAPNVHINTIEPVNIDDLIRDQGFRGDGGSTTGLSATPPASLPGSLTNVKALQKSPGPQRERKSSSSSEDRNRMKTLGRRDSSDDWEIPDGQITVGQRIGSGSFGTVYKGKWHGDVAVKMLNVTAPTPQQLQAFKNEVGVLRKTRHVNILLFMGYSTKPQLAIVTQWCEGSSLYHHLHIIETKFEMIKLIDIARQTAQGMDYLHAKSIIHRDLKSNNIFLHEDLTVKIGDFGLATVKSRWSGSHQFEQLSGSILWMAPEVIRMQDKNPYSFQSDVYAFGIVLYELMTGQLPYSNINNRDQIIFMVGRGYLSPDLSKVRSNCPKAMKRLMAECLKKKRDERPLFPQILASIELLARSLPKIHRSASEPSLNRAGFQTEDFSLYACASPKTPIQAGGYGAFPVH"}, "[10]": {"target": "DYRK1A (Homo sapiens, UniProt Q13627)"}, "[11]": {"target": "T3, DCAMKL2 (Homo sapiens, UniProt Q8N568)", "T3 construct": "gene DCLK2"}, "[12]": {"target": "CAMK2D (Homo sapiens, UniProt Q13557)"}, "[13]": {"target": "T4, RIPK5 (Homo sapiens, UniProt Q6XUX3)", "T4 construct": "gene DSTYK"}, "[14]": {"target": "T5, ABL1(F317L)-nonphosphorylated (Homo sapiens, UniProt P00519, F317L)", "T5 construct": "nonphosphorylated", "T5 sequence (P00519 whole entry F317L)": "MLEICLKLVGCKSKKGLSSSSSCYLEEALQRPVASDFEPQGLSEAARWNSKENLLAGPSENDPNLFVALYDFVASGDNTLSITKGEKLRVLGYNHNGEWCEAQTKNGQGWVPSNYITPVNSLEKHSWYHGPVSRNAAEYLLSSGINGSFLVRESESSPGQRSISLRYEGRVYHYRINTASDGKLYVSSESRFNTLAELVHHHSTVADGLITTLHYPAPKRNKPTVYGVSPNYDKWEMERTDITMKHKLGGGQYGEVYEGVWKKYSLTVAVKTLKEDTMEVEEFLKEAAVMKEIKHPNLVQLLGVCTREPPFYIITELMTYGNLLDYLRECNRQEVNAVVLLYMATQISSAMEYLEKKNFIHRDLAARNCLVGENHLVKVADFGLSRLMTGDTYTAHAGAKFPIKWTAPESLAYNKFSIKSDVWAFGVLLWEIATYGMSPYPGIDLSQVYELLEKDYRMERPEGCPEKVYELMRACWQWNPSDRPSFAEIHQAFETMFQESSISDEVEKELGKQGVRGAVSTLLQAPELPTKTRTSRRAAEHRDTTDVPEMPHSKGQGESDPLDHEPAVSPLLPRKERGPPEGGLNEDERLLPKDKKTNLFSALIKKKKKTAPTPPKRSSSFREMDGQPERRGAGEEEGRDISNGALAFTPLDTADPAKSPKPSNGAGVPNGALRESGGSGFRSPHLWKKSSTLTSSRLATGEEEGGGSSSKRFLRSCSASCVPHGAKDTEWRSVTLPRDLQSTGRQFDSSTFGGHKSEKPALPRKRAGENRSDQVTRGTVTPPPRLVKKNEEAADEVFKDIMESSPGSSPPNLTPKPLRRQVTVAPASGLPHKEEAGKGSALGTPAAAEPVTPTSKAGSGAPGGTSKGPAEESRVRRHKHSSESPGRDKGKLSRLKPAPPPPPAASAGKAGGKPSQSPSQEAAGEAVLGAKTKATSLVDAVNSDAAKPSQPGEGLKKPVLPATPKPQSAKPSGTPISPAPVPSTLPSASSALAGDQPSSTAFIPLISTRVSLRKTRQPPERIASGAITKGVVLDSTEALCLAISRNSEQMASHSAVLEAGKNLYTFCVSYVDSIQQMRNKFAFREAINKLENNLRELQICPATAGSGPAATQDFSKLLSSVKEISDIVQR"}, "[15]": {"target": "T6, RSK2(Kin.Dom.2-C-terminal) (Homo sapiens, UniProt P51812)", "T6 construct": "gene RPS6KA3; Kin.Dom.2-C-terminal", "T6 sequence (P51812 whole entry)": "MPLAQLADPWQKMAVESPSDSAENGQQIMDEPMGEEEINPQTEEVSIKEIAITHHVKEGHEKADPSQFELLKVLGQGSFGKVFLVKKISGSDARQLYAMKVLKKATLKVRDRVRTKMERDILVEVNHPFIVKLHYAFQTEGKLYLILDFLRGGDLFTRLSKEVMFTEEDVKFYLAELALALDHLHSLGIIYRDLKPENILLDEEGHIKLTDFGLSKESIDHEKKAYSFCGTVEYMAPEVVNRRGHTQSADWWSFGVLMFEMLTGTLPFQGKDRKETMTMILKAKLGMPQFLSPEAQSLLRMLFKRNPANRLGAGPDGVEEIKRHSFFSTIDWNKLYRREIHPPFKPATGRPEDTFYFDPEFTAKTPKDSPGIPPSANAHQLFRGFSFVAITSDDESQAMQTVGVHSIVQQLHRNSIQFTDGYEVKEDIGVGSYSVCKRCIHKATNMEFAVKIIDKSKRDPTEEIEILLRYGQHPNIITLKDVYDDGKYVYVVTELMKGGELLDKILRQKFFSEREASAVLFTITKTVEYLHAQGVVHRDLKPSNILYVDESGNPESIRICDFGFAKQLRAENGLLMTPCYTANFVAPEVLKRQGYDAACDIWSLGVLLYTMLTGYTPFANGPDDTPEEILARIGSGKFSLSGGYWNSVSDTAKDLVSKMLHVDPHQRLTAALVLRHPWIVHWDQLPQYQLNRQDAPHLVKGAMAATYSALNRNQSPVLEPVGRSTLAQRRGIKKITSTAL"}, "[16]": {"target": "T7, CAMK1B (Homo sapiens, UniProt Q6P2M8)", "T7 construct": "gene PNCK"}, "[17]": {"target": "PDGFRA (Homo sapiens, UniProt P16234)", "sequence (P16234 whole entry)": "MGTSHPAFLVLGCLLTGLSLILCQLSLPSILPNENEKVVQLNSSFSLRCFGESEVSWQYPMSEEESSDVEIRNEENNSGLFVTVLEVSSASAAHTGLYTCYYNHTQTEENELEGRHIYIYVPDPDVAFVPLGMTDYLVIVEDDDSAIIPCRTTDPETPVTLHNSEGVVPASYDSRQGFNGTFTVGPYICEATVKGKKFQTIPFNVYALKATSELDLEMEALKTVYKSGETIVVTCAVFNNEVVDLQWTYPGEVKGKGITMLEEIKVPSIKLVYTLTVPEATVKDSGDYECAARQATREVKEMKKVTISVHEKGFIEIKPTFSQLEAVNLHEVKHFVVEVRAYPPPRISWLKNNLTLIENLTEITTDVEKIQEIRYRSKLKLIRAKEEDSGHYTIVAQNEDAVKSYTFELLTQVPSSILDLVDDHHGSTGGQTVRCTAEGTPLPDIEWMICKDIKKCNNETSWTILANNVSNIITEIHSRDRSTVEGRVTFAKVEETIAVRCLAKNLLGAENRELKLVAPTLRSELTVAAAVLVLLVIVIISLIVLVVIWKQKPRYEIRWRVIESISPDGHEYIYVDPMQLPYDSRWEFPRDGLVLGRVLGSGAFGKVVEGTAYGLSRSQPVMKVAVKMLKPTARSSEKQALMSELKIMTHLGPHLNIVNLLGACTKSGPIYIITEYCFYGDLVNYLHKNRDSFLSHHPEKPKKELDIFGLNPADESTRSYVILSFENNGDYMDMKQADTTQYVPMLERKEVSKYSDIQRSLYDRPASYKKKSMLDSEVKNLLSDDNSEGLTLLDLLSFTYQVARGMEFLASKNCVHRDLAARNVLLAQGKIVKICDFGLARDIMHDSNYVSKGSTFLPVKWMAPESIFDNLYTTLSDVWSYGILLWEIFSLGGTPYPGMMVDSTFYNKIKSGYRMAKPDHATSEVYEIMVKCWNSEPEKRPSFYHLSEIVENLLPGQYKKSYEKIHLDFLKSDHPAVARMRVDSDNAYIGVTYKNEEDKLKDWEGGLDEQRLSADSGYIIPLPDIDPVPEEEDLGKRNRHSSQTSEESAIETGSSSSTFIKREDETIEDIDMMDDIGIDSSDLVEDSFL"}, "[18]": {"target": "MAPKAPK2 (Homo sapiens, UniProt P49137)"}}, "data": [{"smiles": "c1ccc2c(c1)Sc1ccccc1N2CCN1CCOCC1", "note": "[J54]", "values": [{"measurement": "remaining binding", "setting": "[1]", "result": 99, "unit": "%"}, {"measurement": "remaining binding", "setting": "[2]", "result": 97, "unit": "%"}, {"measurement": "remaining binding", "setting": "[3]", "result": 100, "unit": "%"}, {"measurement": "remaining binding", "setting": "[4]", "result": 100, "unit": "%"}, {"measurement": "remaining binding", "setting": "[5]", "result": 85, "unit": "%"}, {"measurement": "remaining binding", "setting": "[6]", "result": 79, "unit": "%"}, {"measurement": "remaining binding", "setting": "[7]", "result": 84, "unit": "%"}, {"measurement": "remaining binding", "setting": "[8]", "result": 100, "unit": "%"}, {"measurement": "remaining binding", "setting": "[9]", "result": 100, "unit": "%"}, {"measurement": "remaining binding", "setting": "[10]", "result": 80, "unit": "%"}, {"measurement": "remaining binding", "setting": "[11]", "result": 100, "unit": "%"}, {"measurement": "remaining binding", "setting": "[12]", "result": 100, "unit": "%"}, {"measurement": "remaining binding", "setting": "[13]", "result": 100, "unit": "%"}, {"measurement": "remaining binding", "setting": "[14]", "result": 98, "unit": "%"}, {"measurement": "remaining binding", "setting": "[15]", "result": 89, "unit": "%"}, {"measurement": "remaining binding", "setting": "[16]", "result": 94, "unit": "%"}, {"measurement": "remaining binding", "setting": "[17]", "result": 100, "unit": "%"}, {"measurement": "remaining binding", "setting": "[18]", "result": 100, "unit": "%"}]}]}
